According to US10316038B2, “Pyrrolopyrimidine ITK inhibitors for treating inflammation and cancer” (ACLARIS THERAPEUTICS, INC., priority 2017, dated 2019):
Where two headings read alike, the source gives them in different places.

Legend:
ITK = molecular target: T1, ITK (Homo sapiens, UniProt Q08881); assay: ITK inhibitor binding potency (LanthaScreen competitive binding assay); details: TR-FRET competitive binding, 10 nM ITK, 50 nM kinase tracer-236; pre-incubation condition not given; read-out: ITK Inhibition IC50
T1 sequence (Q08881 1-620): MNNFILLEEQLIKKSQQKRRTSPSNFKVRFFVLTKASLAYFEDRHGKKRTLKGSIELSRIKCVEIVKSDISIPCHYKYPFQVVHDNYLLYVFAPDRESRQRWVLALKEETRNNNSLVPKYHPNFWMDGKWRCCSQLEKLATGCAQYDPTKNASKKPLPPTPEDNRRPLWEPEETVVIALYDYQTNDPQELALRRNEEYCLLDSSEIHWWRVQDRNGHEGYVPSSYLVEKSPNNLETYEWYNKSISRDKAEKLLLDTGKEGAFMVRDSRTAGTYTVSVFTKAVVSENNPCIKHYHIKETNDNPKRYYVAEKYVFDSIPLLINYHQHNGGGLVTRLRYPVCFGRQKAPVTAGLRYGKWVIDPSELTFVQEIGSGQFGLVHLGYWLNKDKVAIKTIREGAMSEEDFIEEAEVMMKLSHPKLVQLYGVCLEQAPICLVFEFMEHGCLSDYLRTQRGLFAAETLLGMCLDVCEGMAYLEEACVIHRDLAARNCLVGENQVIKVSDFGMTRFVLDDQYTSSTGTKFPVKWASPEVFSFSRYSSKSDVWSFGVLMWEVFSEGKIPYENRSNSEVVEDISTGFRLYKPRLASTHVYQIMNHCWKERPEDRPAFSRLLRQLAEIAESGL
Description: The ability of candidate compounds to interact with ITK is quantitated by a competitive binding assay using the LanthaScreen technology developed by Life Technologies. This assay is based on the binding of a proprietary, Alexa Fluor™ 647-labeled, ATP-competitive kinase inhibitor (kinase tracer-236) to the ITK expression construct in the presence of a Europium-conjugated antibody, resulting in a FRET (fluorescence resonance energy transfer) signal. Displacement of the kinase tracer by compound results in a lower emission ratio upon excitation of the Europium chelate. Candidate compounds are designed as potential irreversible inhibitors of ITK, capable of ligating to an active site cysteine residue resulting in time dependent covalent binding. The time dependent nature of irreversible inhibition is investigated by performing the binding assay with and without a pre-incubation of compound and ITK. […] The inhibitory potency of candidate compounds is measured in 20 mM HEPES pH 7.5, 10 mM MgCl2, 0.01% BSA, 0.0005% Tween-20, and 2% DMSO in the presence of 10 nM ITK, 2 nM Eu-anti-GST antibody, and 50 nM kinase tracer-236 using a 384-well plate format. Background signal is defined in the absence of ITK and uninhibited signal is defined in the presence of vehicle (2% DMSO) alone. Compounds were evaluated in an 11 point dose-response ranging from 20 uM to 0.34 nM. The binding assays are performed under two preincubation conditions to evaluate time dependence of inhibition. For the pre-incubation assay, ITK and Eu-anti-GST antibody are pre-incubated with compound or vehicle for two hours prior to the addition of kinase tracer. The non-preincubated assay is run under conditions where ITK and Eu-anti-GST antibody are added to a mixture of compound and kinase tracer. IC50 values of compounds are determined using a 4 parameter logistical fit of emission ratio as a function of the concentration of compound.

[1] = system: ITK phosphorylation of its substrate, PLCγ1, at Y783; assay: ITK target modulation assay (phospho-Y783 PLCγ1 immunoblot in Jurkat T cells); format: cell-based; details: 2 hours compound, CD3/CD28 Dynabeads stimulation 100 sec, anti-phospho-Y783 PLCγ1 immunoblot, read-out: PLC-γ Inhibition IC50
Method: Target modulation was based upon the ability of a compound to inhibit ITK phosphorylation of its substrate, PLCγ1, at […]. Human Jurkat T cells were placed in snap-cap polypropylene tubes at 4 million per tube in 800 μL medium (RPMI1640 with 10% heat inactivated serum and […] 2-mercaptoethanol and supplemented with glutamine/penicillin/streptomycin). Compounds were added as 100 μL of 10× working stock solutions in medium with 1% DMSO (or medium with 1% DMSO for controls) and placed in a 37° C. incubator for 2 hours. Stimulation was carried out using CD3/CD28 Dynabeads to activate the T cell receptor and mimic antigen presenting cells. Beads were added for 100 sec at a ratio of 1 bead per cell, in 100 μL medium (or medium alone for unstimulated control). Starting at 70 sec, cells and beads were pelleted in a microfuge for 15 sec, the supernatant aspirated, and 50 μL lysis buffer was added per tube and mixed with the pellet at the 100 sec time point. Tubes were placed on a rotator for 30 min at 4° C., and cell debris was pelleted in a microfuge. Supernatant was mixed 1:1 with 2× Sample Buffer and subjected to SDS-polyacrylamide gel electrophoresis. After transfer to nitrocellulose, immunoblotting was done with anti-phospho-[…] PLCγ1 antibody. Immunoblots were visualized with ECL using horseradish peroxidase conjugated secondary antibody.

| SMILES | IC50 (ITK) [µM] | IC50 ([1]; Homo sapiens, Jurkat, 2 h) [µM] | IC50 ([1]; Human Jurkat T cells) [µM] |
| --- | --- | --- | --- |
| C=CC(=O)Nc1cc(-c2cnc3[nH]cc(-c4cncc(C#N)c4)c3c2)cc(C(F)(F)F)c1 [Example 12, N-(3-(3-(5-cyano-pyridin-3-yl)-1H-pyrrolo[2,3-b]-pyridin-5-yl)-5-(trifluoromethyl)-phenyl)acrylamide] | ≤ 0.1 | ≤ 1 |  |
| C=CC(=O)Nc1cccc(-c2cnc3[nH]cc(-c4cncc(NC)c4)c3c2)c1 [Example 24, N-(3-(3-(5-(methylamino)-pyridin-3-yl)-1H-pyrrolo[2,3-b]-pyridin-5-yl)-phenyl)acrylamide] | ≤ 0.1 | ≤ 1 |  |
| CNc1nccc(-c2c[nH]c3ncc(-c4cc(NC(=O)/C=C/CN(C)C)cc(OC)c4)cc23)n1 [Example 46, (E)-4-(dimethyl-amino)-N-(3-methoxy-5-(3-(2-(methylamino)-pyrimidin-4-yl)-1H-pyrrolo[2,3-b]-pyridin-5-yl)-phenyl)but-2-enamide] | ≤ 0.1 | 1 to 5 |  |
| CN(C)C/C=C/C(=O)N(C)c1cncc(-c2cnc3[nH]cc(-c4cccc(C#N)c4)c3c2)c1 [Example 72, (E)-N-(5-(3-(3-cyanophenyl)-1H-pyrrolo[2,3-b]-pyridin-5-yl)-pyridin-3-yl)-4-(dimethylamino)-N-methylbut-2-enamide] | ≤ 0.1 | 1 to 5 |  |
| CN(C)C/C=C/C(=O)Nc1cncc(-c2cnc3[nH]cc(-c4ccnc(C#N)c4)c3c2)c1 [Example 61, (E)-N-(5-(3-(2-cyanopyridin-4-yl)-1H-pyrrolo-[2,3-b]pyridin-5-yl)pyridin-3-yl)-4-(dimethyl-amino)but-2-enamide] | ≤ 0.1 |  | 1 to 5 |
| C=CC(=O)Nc1cc(OC)cc(-c2cnc3[nH]cc(-c4ccncn4)c3c2)c1 [Example 30, N-(3-methoxy-5-(3-(pyrimidin-4-yl)-1H-pyrrolo-[2,3-b]pyridin-5-yl)phenyl)-acrylamide] | ≤ 0.1 | ≤ 1 |  |
| COc1cc(NC(=O)/C=C/CN(C)C)cc(-c2cnc3[nH]cc(-c4ccnc5[nH]ccc45)c3c2)c1 [Example 31, (E)-N-(3-(1H,1′H-[3,4′-bipyrrolo[2,3-b]pyridin]-5-yl)-5-methoxyphenyl)-4-(dimethylamino)-but-2-enamide] | ≤ 0.1 | ≤ 1 |  |
| C=CC(=O)Nc1cc(OC)cc(-c2cnc3[nH]cc(-c4ccnc(OC)c4)c3c2)c1 [Example 26, N-(3-methoxy-5-(3-(2-methoxy-pyridin-4-yl)-1H-pyrrolo[2,3-b]-pyridin-5-yl)-phenyl)acrylamide] | ≤ 0.1 | ≤ 1 |  |
| C=CC(=O)Nc1cc(-c2cnc3[nH]cc(-c4cccc(C)c4)c3c2)cc(C(F)(F)F)c1 [Example 59, N-(3-(3-(m-tolyl)-1H-pyrrolo[2,3-b]-pyridin-5-yl)-5-(trifluoromethyl)-phenyl)acrylamide] | ≤ 1 | > 5 |  |
| C=CC(=O)Nc1cccc(-c2cnc3[nH]cc(-c4cncc(C#N)c4)c3c2)c1 [Example 8, N-(3-(3-(5-cyano-pyridin-3-yl)-1H-pyrrolo[2,3-b]-pyridin-5-yl)-phenyl)acrylamide] | ≤ 0.1 | 1 to 5 |  |
| Cc1cc(NC(=O)/C=C/CN(C)C)cc(-c2cnc3[nH]cc(-c4cccc(C#N)c4)c3c2)c1 [Example 76, (E)-N-(3-(3-(3-cyanophenyl)-1H-pyrrolo[2,3-b]-pyridin-5-yl)-5-methylphenyl)-4-(dimethyl-amino)but-2-enamide] |  | 1 to 5 |  |
| CN(C)C/C=C/C(=O)Nc1cc(-c2cnc3c(c2)c(-c2cccc(C#N)c2)cn3C)cc(C(F)(F)F)c1 [Example 70] | > 1 | > 5 |  |
| Cc1cc(-c2c[nH]c3ncc(-c4cccc(NC(=O)/C=C/CN(C)C)c4)cc23)ccn1 [Example 48, (E)-4-(dimethyl-amino)-N-(3-(3-(2-methylpyridin-4-yl)-1H-pyrrolo-[2,3-b]pyridin-5-yl)phenyl)but-2-enamide] | ≤ 0.1 | ≤ 1 |  |
| C=CC(=O)Nc1cc(-c2cnc3[nH]cc(-c4ccncn4)c3c2)cc(C(F)(F)F)c1 [Example 22, N-(3-(3-(pyrimidin-4-yl)-1H-pyrrolo-[2,3-b]pyridin-5-yl)-5-(trifluoro-methyl)phenyl)-acrylamide] | ≤ 0.1 | ≤ 1 |  |
| Cc1cc(-c2c[nH]c3ncc(-c4cncc(NC(=O)/C=C/CN(C)C)c4)cc23)ccn1 [Example 42, (E)-4-(dimethyl-amino)-N-(5-(3-(2-methylpyridin-4-yl)-1H-pyrrolo-[2,3-b]pyridin-5-yl)pyridin-3-yl)-but-2-enamide] | ≤ 0.1 | ≤ 1 |  |
| C=CC(=O)Nc1cccc(-c2cnc3[nH]cc(-c4cccc(C#N)c4)c3c2C)c1 [Example 43, N-(3-(3-(3-cyano-phenyl)-4-methyl-1H-pyrrolo[2,3-b]pyridin-5-yl)-phenyl)acrylamide] | ≤ 0.1 | ≤ 1 |  |
| CN(C)C/C=C/C(=O)Nc1cc(-c2cnc3[nH]cc(-c4ccnc5[nH]ccc45)c3c2)cc(C(F)(F)F)c1 [Example 54, (E)-N-(3-(1H,1′H-[3,4′-bipyrrolo-[2,3-b]pyridin]-5-yl)-5-(trifluoro-methyl)phenyl)-4-(dimethylamino)-but-2-enamide] | ≤ 1 | 1 to 5 |  |
| COc1cc(NC(=O)/C=C/CN(C)C)cc(-c2cnc3[nH]cc(-c4ccnc(F)c4)c3c2)c1 [Example 38, (E)-4-(dimethyl-amino)-N-(3-(3-(2-fluoropyridin-4-yl)-1H-pyrrolo-[2,3-b]pyridin-5-yl)-5-methoxy-phenyl)but-2-enamide] | ≤ 0.1 | ≤ 1 |  |
| C=CC(=O)Nc1cc(OC)cc(-c2cnc3[nH]cc(-c4cccc(C#N)c4)c3c2)c1 [Example 16, N-(3-(3-(3-cyano-phenyl)-1H-pyrrolo[2,3-b]-pyridin-5-yl)-5-methoxyphenyl)-acrylamide] | ≤ 0.1 | ≤ 1 |  |
| C=CC(=O)Nc1cc(C)cc(-c2cnc3[nH]cc(-c4cccc(C#N)c4)c3c2)c1 [Example 75, N-(3-(3-(3-cyano-phenyl)-1H-pyrrolo[2,3-b]-pyridin-5-yl)-5-methylphenyl)-acrylamide] |  | 1 to 5 |  |
| COc1cc(-c2c[nH]c3ncc(-c4cncc(N(C)C(=O)/C=C/CN(C)C)c4)cc23)ccn1 [Example 73, (E)-4-(dimethyl-amino)-N-(5-(3-(2-methoxypyridin-4-yl)-1H-pyrrolo-[2,3-b]pyridin-5-yl)pyridin-3-yl)-N-methylbut-2-enamide] |  | ≤ 1 |  |
| CN(C)C/C=C/C(=O)N(C)c1cncc(-c2cnc3[nH]cc(-c4ccnc(F)c4)c3c2)c1 [Example 74, (E)-4-(dimethyl-amino)-N-(5-(3-(2-fluoropyridin-4-yl)-1H-pyrrolo-[2,3-b]pyridin-5-yl)pyridin-3-yl)-N-methylbut-2-enamide] |  | ≤ 1 |  |
